# Literature values, collected in patent publication US11160745B2, “Methods and compositions for topical delivery for skin care” (priority 2014, dated 2021).
# Read-outs that look alike come from different tables or passages of the source.
# Tests used:
# ternary SNARE complex = molecular target: T1, ternary SNARE complex (Homo sapiens, UniProt Q16623); conditions: immunoblot with anti-syntaxin mAb
# T1 construct: Chromaffin cells were prepared and further separated from erythrocytes and other impurities by centrifugation gradient; endogenous in cells; complex immunoprecipitated
# wrinkles around the eyes = conditions: for Reduction of the depth of wrinkles: independent study; for Decrease in severity of wrinkles around the eyes: ONV emulsion containing 10% Argireline solution, twice a day
# chromaffin cells = conditions: tritiated noradrenaline/adrenaline, liquid scintillation counting
# T1 sequence (Q16623 whole entry, one chain of several): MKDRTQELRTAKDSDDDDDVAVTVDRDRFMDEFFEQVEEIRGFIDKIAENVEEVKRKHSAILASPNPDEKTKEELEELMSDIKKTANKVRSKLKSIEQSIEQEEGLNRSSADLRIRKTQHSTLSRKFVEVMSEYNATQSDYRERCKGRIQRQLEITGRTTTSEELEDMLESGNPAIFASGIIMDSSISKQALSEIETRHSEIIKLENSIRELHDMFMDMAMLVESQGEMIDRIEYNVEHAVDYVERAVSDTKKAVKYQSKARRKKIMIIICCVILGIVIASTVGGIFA
substance,measurement,setting,value
"Ac-EEMQRR-NH2 [Argireline, (6S,9S,12S,15S,18S,21 S)-21-Acetamido-1-amino-12-(3-amino-3-oxopropyl)-6-carbamoyl-18-(2-carboxyethyl)-9-(3-guanidinopropyl)-1-imino-15-(2-(methylthio)ethyl)-8,11,14,17,20-pentaoxo-2,7,10,13,16,19-hexaazatetracosan-24-oic acid]",SNARE complex formation,ternary SNARE complex,modulates SNARE complex formation at concentrations in the mM range
same,Reduction of the depth of wrinkles,wrinkles around the eyes; after 15 days of treatment,up to 17%
same,Decrease in severity of wrinkles around the eyes,wrinkles around the eyes; after 15 days,up to 17%
same,Decrease in severity of wrinkles around the eyes,wrinkles around the eyes; after 30 days,up to 27%
same,Reduction of the depth of wrinkles,wrinkles around the eyes; following 30 days of treatment,up to 27%
same,Release of catecholamines (adrenaline and noradrenaline),chromaffin cells,significant modulation of both neurotransmitters at nM concentrations
